Assay in all cases: CXCR6 receptor antagonists, dose response, cell-based, beta-arrestin, DiscoveRx, APJ panel, uHTS hits (AID 624129)
Assay [1] addresses C-C chemokine receptor type 6 (Homo sapiens) (UniProt P51684). Particulars: CXCR6 beta-arrestin (DiscoveRx) antagonist cell assay.
Assay [2] addresses Beta-galactosidase (Escherichia coli) (UniProt Q8VNN2). To be noted: CXCR6 beta-arrestin (DiscoveRx) antagonist cell assay, b-galactosidase.
The target in assay [3] is Apelin receptor (Homo sapiens) (UniProt P35414). Particulars: CXCR6 beta-arrestin (DiscoveRx) antagonist cell assay, APJ.
The target of assay [4] is C-X-C chemokine receptor type 6 (Homo sapiens) (UniProt O00574). To be noted: CXCR6 beta-arrestin (DiscoveRx) antagonist cell assay; for inhibition: CXCR6, run 1, dose range 2, at 80 µM (top of the series).
C-X-C chemokine receptor type 6 (Homo sapiens), sequence (O00574 whole entry, looked up): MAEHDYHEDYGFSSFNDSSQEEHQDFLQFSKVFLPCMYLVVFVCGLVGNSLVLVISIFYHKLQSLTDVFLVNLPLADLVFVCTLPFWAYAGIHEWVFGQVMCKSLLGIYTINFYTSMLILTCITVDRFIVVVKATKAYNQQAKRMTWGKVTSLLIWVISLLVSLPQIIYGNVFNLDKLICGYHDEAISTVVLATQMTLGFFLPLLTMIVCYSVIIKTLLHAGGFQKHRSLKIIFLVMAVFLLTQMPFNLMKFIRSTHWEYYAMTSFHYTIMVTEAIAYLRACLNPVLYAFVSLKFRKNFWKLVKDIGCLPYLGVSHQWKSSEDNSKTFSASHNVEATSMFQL
Setting [5] is: CCR6, dose range 1, mean IC50 across replicates.
Where [6] appears, read: dose range 1, mean IC50 across replicates.
[7] abbreviates: CXCR6, dose range 1, mean IC50 across replicates.

SMILES strings stand for the structures. Active and inactive are the calls of the source. The rule behind the calls is not given here.

Beta-galactosidase (Escherichia coli), sequence (Q8VNN2 whole entry, looked up): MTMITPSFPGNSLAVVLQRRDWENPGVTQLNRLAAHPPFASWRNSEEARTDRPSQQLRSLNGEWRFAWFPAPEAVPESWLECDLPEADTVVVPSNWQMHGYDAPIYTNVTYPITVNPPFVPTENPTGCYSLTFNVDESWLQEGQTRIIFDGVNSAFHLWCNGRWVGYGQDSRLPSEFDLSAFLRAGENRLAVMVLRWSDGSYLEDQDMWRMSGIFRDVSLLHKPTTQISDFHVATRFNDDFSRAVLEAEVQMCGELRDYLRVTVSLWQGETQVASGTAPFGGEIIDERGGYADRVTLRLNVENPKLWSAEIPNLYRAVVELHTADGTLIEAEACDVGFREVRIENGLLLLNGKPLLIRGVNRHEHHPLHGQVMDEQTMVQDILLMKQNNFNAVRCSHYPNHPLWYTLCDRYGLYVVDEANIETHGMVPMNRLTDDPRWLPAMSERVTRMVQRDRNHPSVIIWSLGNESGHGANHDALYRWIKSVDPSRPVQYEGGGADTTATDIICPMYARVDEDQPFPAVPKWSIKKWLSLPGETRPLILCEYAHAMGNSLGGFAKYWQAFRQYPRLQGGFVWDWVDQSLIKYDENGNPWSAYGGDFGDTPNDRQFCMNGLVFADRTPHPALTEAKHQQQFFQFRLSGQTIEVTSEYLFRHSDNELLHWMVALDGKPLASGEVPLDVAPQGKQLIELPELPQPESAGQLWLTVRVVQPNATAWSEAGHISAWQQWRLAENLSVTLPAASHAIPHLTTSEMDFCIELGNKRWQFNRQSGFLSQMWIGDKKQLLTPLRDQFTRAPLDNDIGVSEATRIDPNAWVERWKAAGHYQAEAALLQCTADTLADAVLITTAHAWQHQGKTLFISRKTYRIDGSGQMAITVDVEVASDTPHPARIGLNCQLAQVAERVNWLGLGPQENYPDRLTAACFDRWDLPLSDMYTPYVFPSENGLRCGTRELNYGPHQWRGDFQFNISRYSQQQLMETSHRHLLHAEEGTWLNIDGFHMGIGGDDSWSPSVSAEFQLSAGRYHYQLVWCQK

With `O=C1C=CC(=O)N1c1ccccc1N1C(=O)C=CC1=O`, the half-inhibitory concentration (IC50) (usually the midpoint of a concentration-inhibition curve) in assay [1] (setting [5]) is more than 80 µM; in assay [1] (CCR6, run 2, dose range 1), more than 80 µM; in assay [2] (dose range 1), > 80 µM (inactive); in assay [2] (setting [6]), more than 80 µM; in assay [3] (setting [6]), more than 80 µM; in assay [3] (run 2, dose range 1) it was more than 80 µM. For the same compound, the IC50 in assay [3] (run 3, dose range 1) is more than 80 µM; in assay [4] (CXCR6, dose range 1), > 80 µM (inactive); in assay [4] (setting [7]) it was more than 80 µM; in assay [4] (CXCR6, run 2, dose range 1), more than 80 µM. The inhibition (as a rule, the drop in the measured response relative to a control, in per cent) in assay [4] turned out to be 42.9%.
With `CC1(C)CC(=O)C2=C(C1)OC1=C(C(=O)CC(C)(C)C1)C2c1ccc(O)cc1O`, the IC50 in assay [1] (CCR6, dose range 1) was 4.66 µM; in assay [1] (setting [5]), 5.44 µM; in assay [1] (CCR6, run 2, dose range 1), 6.22 µM; in assay [2] (dose range 1), > 80 µM (inactive); in assay [2] (setting [6]) it was more than 80 µM; in assay [3] (dose range 1), 11.2 µM. Also, the IC50 is 10.6 µM in assay [3] (setting [6]); 8.84 µM in assay [3] (run 2, dose range 1); 11.7 µM in assay [3] (run 3, dose range 1); 10.3 µM in assay [4] (CXCR6, dose range 1); 9.86 µM in assay [4] (setting [7]); 9.08 µM in assay [4] (CXCR6, run 1, dose range 2). Besides, the IC50 in assay [4] (CXCR6, run 2, dose range 1) was found to be 9.24 µM; in assay [4] (CXCR6, run 2, dose range 2), 10.8 µM.
In the case of `Cc1ccc(-c2oc3ccccc3c(=O)c2O)cc1`, the IC50 in assay [1] (setting [5]) is 9.06 µM; in assay [1] (CCR6, run 2, dose range 1) it was 9.06 µM; in assay [2] (dose range 1), > 80 µM (inactive); in assay [2] (setting [6]), more than 80 µM; in assay [3] (dose range 1) it was 22.8 µM; in assay [3] (setting [6]), 14.7 µM. Also, the IC50 in assay [3] (run 2, dose range 1) is 12.2 µM; in assay [3] (run 3, dose range 1) it was 9.18 µM; in assay [4] (CXCR6, dose range 1) it was 7.44 µM; in assay [4] (setting [7]), 6.98 µM; in assay [4] (CXCR6, run 2, dose range 1) it was 6.53 µM. Also, in assay [4], the inhibition is 28.7%.
Turning to `O=[N+]([O-])c1ccc(Sc2cccc[n+]2[O-])c2nonc12`, the IC50 in assay [1] (CCR6, dose range 1) is 11.5 µM; in assay [1] (setting [5]), 11.5 µM; in assay [1] (CCR6, run 2, dose range 1) it was 11.6 µM; in assay [2] (dose range 1), > 80 µM (inactive); in assay [2] (setting [6]) it was more than 80 µM; in assay [3] (dose range 1), 21.5 µM. Besides, the IC50 in assay [3] (setting [6]) is 19.7 µM; in assay [3] (run 2, dose range 1), 17.5 µM; in assay [3] (run 3, dose range 1), 20.1 µM; in assay [4] (CXCR6, dose range 1), > 80 µM (inactive); in assay [4] (setting [7]) it was more than 80 µM; in assay [4] (CXCR6, run 2, dose range 1), more than 80 µM. The inhibition in assay [4] was 118%.
For the compound `COc1ccccc1-c1cc(C(F)(F)F)nc(S(=O)(=O)CCCC(=O)NCc2ccc(F)cc2)n1`, the IC50 in assay [1] (setting [5]) was more than 80 µM; in assay [1] (CCR6, run 2, dose range 1), more than 80 µM; in assay [2] (dose range 1), > 80 µM (inactive); in assay [2] (setting [6]), more than 80 µM; in assay [3] (setting [6]), more than 80 µM; in assay [3] (run 2, dose range 1), more than 80 µM. Besides, the IC50 in assay [3] (run 3, dose range 1) was more than 80 µM; in assay [4] (CXCR6, dose range 1) it was > 80 µM (inactive); in assay [4] (setting [7]), more than 80 µM; in assay [4] (CXCR6, run 2, dose range 1), more than 80 µM. In addition, in assay [4], the inhibition is -37.9%.
On to `CCO[C@@H]1OC(C(=O)N2CCN(Cc3ccccc3)CC2)=C[C@H](c2ccc(Br)cc2)[C@H]1CCCO`, for which the IC50 in assay [1] (CCR6, dose range 1) is 11.4 µM; in assay [1] (setting [5]), 11.5 µM; in assay [1] (CCR6, run 2, dose range 1) it was 11.6 µM; in assay [2] (dose range 1), > 80 µM (inactive); in assay [2] (setting [6]), more than 80 µM; in assay [3] (dose range 1), 16.6 µM. The concentration for half-maximal inhibition (IC50) in assay [3] (setting [6]) stood at 19.4 µM; in assay [3] (run 2, dose range 1), 21.1 µM; in assay [3] (run 3, dose range 1) it was 20.4 µM; in assay [4] (setting [7]) it was 12.1 µM; in assay [4] (CXCR6, run 2, dose range 1), 9.21 µM. Also, in assay [4] (CXCR6, dose range 1), the IC50 result was “inactive”. The inhibition in assay [4] is 126%.
Take `CN(C)C(=O)CSc1cccc2cccnc12`: the IC50 is more than 80 µM in assay [1] (setting [5]); more than 80 µM in assay [1] (CCR6, run 2, dose range 1); > 80 µM (inactive) in assay [2] (dose range 1); more than 80 µM in assay [2] (setting [6]); more than 80 µM in assay [3] (setting [6]); more than 80 µM in assay [3] (run 2, dose range 1). The IC50 in assay [3] (run 3, dose range 1) is more than 80 µM; in assay [4] (CXCR6, dose range 1) it was > 80 µM (inactive); in assay [4] (setting [7]), more than 80 µM; in assay [4] (CXCR6, run 2, dose range 1) it was more than 80 µM. The inhibition in assay [4] is -25%.
With `COC(=O)c1ccc2c(c1)C(C)(C)C(/C=C/c1ccccc1O)=[N+]2C`, the IC50 in assay [1] (CCR6, dose range 1) is 10.3 µM; in assay [1] (setting [5]), 11.3 µM; in assay [1] (CCR6, run 2, dose range 1), 12.3 µM; in assay [2] (dose range 1), 24.2 µM; in assay [2] (setting [6]), 24.2 µM; in assay [3] (dose range 1) it was 16.2 µM. Besides, the IC50 in assay [3] (setting [6]) stood at 15.9 µM; in assay [3] (run 2, dose range 1) it was 14.1 µM; in assay [3] (run 3, dose range 1), 17.3 µM; in assay [4] (setting [7]) it was 11.7 µM; in assay [4] (CXCR6, run 1, dose range 2), 8.94 µM; in assay [4] (CXCR6, run 2, dose range 1) it was 13.5 µM. The compound further came in with an IC50 in assay [4] (CXCR6, run 2, dose range 2) of 9.88 µM. Further, the IC50 entry in assay [4] (CXCR6, dose range 1) was “inactive”.
As to `O=C(CSc1cccc2cccnc12)N1CCCC1`, the IC50 in assay [1] (CCR6, dose range 1) is 4.22 µM; in assay [1] (setting [5]) it was 5.29 µM; in assay [1] (CCR6, run 2, dose range 1), 6.36 µM; in assay [2] (dose range 1), > 80 µM (inactive); in assay [2] (setting [6]) it was more than 80 µM; in assay [3] (dose range 1) it was 4.54 µM. The IC50 in assay [3] (setting [6]) is 5.35 µM; in assay [3] (run 2, dose range 1), 6.22 µM; in assay [3] (run 3, dose range 1) it was 5.31 µM; in assay [4] (CXCR6, dose range 1), 10.7 µM; in assay [4] (setting [7]), 6.17 µM; in assay [4] (CXCR6, run 1, dose range 2) it was 4.06 µM. The IC50 in assay [4] (CXCR6, run 2, dose range 1) is 6.29 µM; in assay [4] (CXCR6, run 2, dose range 2) it was 3.6 µM.
In the case of `CS(=O)(=O)c1sc(C#N)c2c1C(=O)CC(c1ccccc1)C2` (configuration not stated), the IC50 in assay [1] (CCR6, dose range 1) was 27.4 µM; in assay [1] (setting [5]), 37.9 µM; in assay [1] (CCR6, run 2, dose range 1) it was 48.5 µM; in assay [2] (dose range 1) it was > 80 µM (inactive); in assay [2] (setting [6]), more than 80 µM; in assay [3] (dose range 1), 68.7 µM. Also, the IC50 was 68.7 µM in assay [3] (setting [6]); more than 80 µM in assay [3] (run 2, dose range 1); more than 80 µM in assay [3] (run 3, dose range 1); 45.5 µM in assay [4] (setting [7]); 32.1 µM in assay [4] (CXCR6, run 2, dose range 1). For the same compound, the IC50 entry in assay [4] (CXCR6, dose range 1) is “inactive”. Moreover, the inhibition in assay [4] was 73.2%.
Consider `Cc1cccc(C)c1NC(=O)c1nc(S(=O)(=O)Cc2ccccc2)ncc1Cl`, for which the IC50 in assay [1] (setting [5]) was more than 80 µM; in assay [1] (CCR6, run 2, dose range 1) it was more than 80 µM; in assay [2] (dose range 1), > 80 µM (inactive); in assay [2] (setting [6]) it was more than 80 µM; in assay [3] (setting [6]), more than 80 µM; in assay [3] (run 2, dose range 1), more than 80 µM. For the same compound, the IC50 is more than 80 µM in assay [3] (run 3, dose range 1); > 80 µM (inactive) in assay [4] (CXCR6, dose range 1); more than 80 µM in assay [4] (setting [7]); more than 80 µM in assay [4] (CXCR6, run 2, dose range 1). Further, the inhibition in assay [4] was -9.6%.
For `O=[N+]([O-])c1ccc(S(=O)Cc2ccccc2)c([N+](=O)[O-])c1` (configuration not stated), the IC50 was more than 80 µM in assay [1] (setting [5]); more than 80 µM in assay [1] (CCR6, run 2, dose range 1); > 80 µM (inactive) in assay [2] (dose range 1); more than 80 µM in assay [2] (setting [6]); more than 80 µM in assay [3] (setting [6]); more than 80 µM in assay [3] (run 2, dose range 1). Moreover, the IC50 is more than 80 µM in assay [3] (run 3, dose range 1); > 80 µM (inactive) in assay [4] (CXCR6, dose range 1); more than 80 µM in assay [4] (setting [7]); more than 80 µM in assay [4] (CXCR6, run 2, dose range 1). Also, in assay [4], the inhibition is -36.3%.
With `Cc1ccc2c(C)ccc(O)c2n1`, the IC50 in assay [1] (CCR6, dose range 1) is 4.94 µM; in assay [1] (setting [5]) it was 5.41 µM; in assay [1] (CCR6, run 2, dose range 1), 5.87 µM; in assay [2] (dose range 1), > 80 µM (inactive); in assay [2] (setting [6]) it was more than 80 µM; in assay [3] (dose range 1), 5.26 µM. Moreover, the IC50 in assay [3] (setting [6]) was 5.92 µM; in assay [3] (run 2, dose range 1) it was 6.22 µM; in assay [3] (run 3, dose range 1) it was 6.29 µM; in assay [4] (CXCR6, dose range 1), 4.91 µM; in assay [4] (setting [7]), 5.07 µM; in assay [4] (CXCR6, run 1, dose range 2) it was 4.36 µM. Besides, the IC50 in assay [4] (CXCR6, run 2, dose range 1) worked out at 5.82 µM; in assay [4] (CXCR6, run 2, dose range 2) it was 5.2 µM.

The record behind these values is PubChem BioAssay AID624129 (Sanford-Burnham Center for Chemical Genomics, 2012).
